Values after ≈ are worked out from the molar mass of the structure shown.
Key:
Type in all cases: functional
Nilaparvata lugens [1] = assay: Insecticidal activity against 23 generation selection pressure-induced imidacloprid-resistance Nilaparvata lugens (brown planthopper) at third instar nymph stage in rice stem assessed as mortality treated for 30 secs prior to nymph infestation measured at 96 hr post-drug treatment by rice-stem dipping method
Nilaparvata lugens [2] = assay: (§1) Insecticidal activity against Nilaparvata lugens (brown planthopper) parental generation in rice stem assessed as mortality treated for 30 secs prior to nymph infestation measured at 96 hr post-drug treatment by rice-stem dipping method; conditions: read-out: Log10LC50 (converted)
Nilaparvata lugens [3] = assay: Resistance ratio of LC50 for imidacloprid-resistance Nilaparvata lugens (brown planthopper) to LC50 for imidacloprid-susceptible brown planthopper
Nilaparvata lugens [4] = assay: as §1, with “F1 progeny generated from reciprocal cross between female imidacloprid-susceptible strain and male imidaclporid-resistant strain” for “parental generation”
Nilaparvata lugens [5] = assay: Resistance ratio of LC50 for Nilaparvata lugens (brown planthopper) F1' progeny to LC50 for imidacloprid-susceptible brown planthopper
Nilaparvata lugens [6] = assay: Insecticidal activity against third instar nymph stage of imidacloprid-susceptible Nilaparvata lugens (brown planthopper) in rice stem assessed as mortality treated for 30 secs prior to nymph infestation measured at 96 hr post-drug treatment by rice-stem dipping method
Nilaparvata lugens [7] = assay: as §1, with “F1' progeny generated from reciprocal cross between male imidacloprid-susceptible strain and female imidaclporid-resistant strain” for “parental generation”
Nilaparvata lugens [8] = assay: Resistance ratio of LC50 for Nilaparvata lugens (brown planthopper) F1 progeny to LC50 for imidacloprid-susceptible brown planthopper
Nilaparvata lugens [9] = assay: Insecticidal activity against Nilaparvata lugens (brown planthopper) offspring obtained after 23 selected generations in rice stem assessed as mortality treated for 30 secs prior to nymph infestation measured at 96 hr post-drug treatment by rice-stem dipping method; conditions: read-out: Log10LC50 (converted)

## O=[N+]([O-])/N=C1\NCCN1Cc1ccc(Cl)nc1 [IMIDACLOPRID]
Nilaparvata lugens [1]
  LC50: 106 µg/mL (≈ 415 µM)
Nilaparvata lugens [2]
  LC50: 62.5 mM
Nilaparvata lugens [3]
  RatioLC50: 964.09
Nilaparvata lugens [4]
  LC50: 25.7 µg/mL (≈ 100 µM)
Nilaparvata lugens [5]
  RatioLC50: 274.45
Nilaparvata lugens [6]
  LC50: 0.11 µg/mL (≈ 0.43 µM)
Nilaparvata lugens [7]
  LC50: 30.2 µg/mL (≈ 118 µM)
Nilaparvata lugens [8]
  RatioLC50: 233.45
Nilaparvata lugens [9]
  LC50: 9.43 mM

From ChEMBL document CHEMBL3046277, “Inheritance mode and realized heritability of resistance to imidacloprid in the brown planthopper, Nilaparvata lugens (Stål) (Homoptera: Delphacidae)” (2009)
